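1) Cells in 96-well plates. 2) Compound, 48 h, 5 concentrations. 3) Linear interpolation between surrounding doses. 4) Unreached endpoint = highest concentration. At the GI50, growth is halved.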 The source made the active and inactive calls. Rule as the data show it: active = GI50 up to about 1.1 µM and inactive = higher.
Key:
Test in all cases: DTP human tumour cell line panel, 48 h
786-0 = tested on: 786-0
A498 = tested on: A498
A549 = tested on: A549
CCRF-CEM = tested on: CCRF-CEM
COLO 205 = tested on: COLO 205
DLD-1 = tested on: DLD-1
DMS-114 = tested on: DMS-114
DMS-273 = tested on: DMS-273
EKVX = tested on: EKVX
HCC 2998 = tested on: HCC 2998
HCT-116 = tested on: HCT-116
HCT-15 = tested on: HCT-15
HL-60 = tested on: HL-60
HOP-18 = tested on: HOP-18
HOP-62 = tested on: HOP-62
HOP-92 = tested on: HOP-92
HT-29 = tested on: HT-29
IGROV-1 = tested on: IGROV-1
K562 = tested on: K562
KM-20L2 = tested on: KM-20L2
KM12 = tested on: KM12
LOX IMVI = tested on: LOX IMVI
LXFL 529 = tested on: LXFL 529
M14 = tested on: M14
M19-MEL = tested on: M19-MEL
MOLT-4 = tested on: MOLT-4
Malme-3M = tested on: Malme-3M
NCI-H226 = tested on: NCI-H226
NCI-H23 = tested on: NCI-H23
NCI-H460 = tested on: NCI-H460
OVCAR-3 = tested on: OVCAR-3
OVCAR-4 = tested on: OVCAR-4
OVCAR-5 = tested on: OVCAR-5
OVCAR-8 = tested on: OVCAR-8
RPMI-8226 = tested on: RPMI-8226
RXF 393 = tested on: RXF 393
SF-268 = tested on: SF-268
SF-295 = tested on: SF-295
SF-539 = tested on: SF-539
SK-MEL-28 = tested on: SK-MEL-28
SK-MEL-2 = tested on: SK-MEL-2
SK-MEL-5 = tested on: SK-MEL-5
SK-OV-3 = tested on: SK-OV-3
SN12C = tested on: SN12C
SNB-19 = tested on: SNB-19
SNB-75 = tested on: SNB-75
SNB-78 = tested on: SNB-78
SR = tested on: SR
SW-620 = tested on: SW-620
TK-10 = tested on: TK-10
U-251 = tested on: U-251
UACC-257 = tested on: UACC-257
UACC-62 = tested on: UACC-62
UO-31 = tested on: UO-31
XF498 = tested on: XF498
ACHN = tested on: ACHN
CAKI-1 = tested on: CAKI-1
NCI-H522 = tested on: NCI-H522
RXF 631 = tested on: RXF 631

Nc1nc(Cl)cc(NCC(O)CO)n1 (stereo not given)
GI50 (786-0): > 100 µM (inactive) | GI50 (A498): > 100 µM (inactive) | GI50 (A549): > 100 µM (inactive) | GI50 (CCRF-CEM): > 100 µM (inactive) | GI50 (COLO 205): > 100 µM (inactive) | GI50 (DLD-1): > 100 µM (inactive) | GI50 (DMS-114): > 100 µM (inactive) | GI50 (DMS-273): > 100 µM (inactive) | GI50 (EKVX): > 100 µM (inactive) | GI50 (HCC 2998): > 100 µM (inactive) | GI50 (HCT-116): > 100 µM (inactive) | GI50 (HCT-15): > 100 µM | GI50 (HL-60): > 100 µM (inactive) | GI50 (HOP-18): > 100 µM (inactive) | GI50 (HOP-62): > 100 µM (inactive) | GI50 (HOP-92): > 100 µM (inactive) | GI50 (HT-29): > 100 µM (inactive) | GI50 (IGROV-1): > 100 µM (inactive) | GI50 (K562): > 100 µM (inactive) | GI50 (KM-20L2): > 100 µM (inactive) | GI50 (KM12): > 100 µM (inactive) | GI50 (LOX IMVI): > 100 µM (inactive) | GI50 (LXFL 529): > 100 µM (inactive) | GI50 (M14): > 100 µM (inactive) | GI50 (M19-MEL): > 100 µM (inactive) | GI50 (MOLT-4): > 100 µM (inactive) | GI50 (Malme-3M): > 100 µM (inactive) | GI50 (NCI-H226): > 100 µM (inactive) | GI50 (NCI-H23): > 100 µM (inactive) | GI50 (NCI-H460): > 100 µM (inactive) | GI50 (OVCAR-3): > 100 µM (inactive) | GI50 (OVCAR-4): > 100 µM (inactive) | GI50 (OVCAR-5): > 100 µM (inactive) | GI50 (OVCAR-8): > 100 µM (inactive) | GI50 (RPMI-8226): > 100 µM (inactive) | GI50 (RXF 393): > 100 µM (inactive) | GI50 (SF-268): > 100 µM (inactive) | GI50 (SF-295): > 100 µM (inactive) | GI50 (SF-539): > 100 µM (inactive) | GI50 (SK-MEL-28): > 100 µM (inactive) | GI50 (SK-MEL-2): > 100 µM (inactive) | GI50 (SK-MEL-5): > 100 µM (inactive) | GI50 (SK-OV-3): > 100 µM (inactive) | GI50 (SN12C): > 100 µM (inactive) | GI50 (SNB-19): > 100 µM (inactive) | GI50 (SNB-75): > 100 µM (inactive) | GI50 (SNB-78): > 100 µM (inactive) | GI50 (SR): > 100 µM (inactive) | GI50 (SW-620): > 100 µM (inactive) | GI50 (TK-10): > 100 µM (inactive) | GI50 (U-251): > 100 µM (inactive) | GI50 (UACC-257): > 100 µM (inactive) | GI50 (UACC-62): > 100 µM (inactive) | GI50 (UO-31): > 100 µM (inactive) | GI50 (XF498): > 100 µM (inactive)

Cc1ccccc1NC(=O)C(=O)CC(=O)c1sc(-n2nc(-c3ccccc3)cc2-c2ccccc2)nc1C
GI50 (786-0): > 100 µM (inactive) | GI50 (A498): > 100 µM (inactive) | GI50 (A549): > 100 µM (inactive) | GI50 (ACHN): > 100 µM (inactive) | GI50 (CAKI-1): > 100 µM (inactive) | GI50 (CCRF-CEM): > 100 µM (inactive) | GI50 (COLO 205): > 100 µM (inactive) | GI50 (DLD-1): > 100 µM (inactive) | GI50 (DMS-114): > 100 µM (inactive) | GI50 (DMS-273): > 100 µM (inactive) | GI50 (EKVX): > 100 µM (inactive) | GI50 (HCC 2998): > 100 µM (inactive) | GI50 (HCT-116): > 100 µM (inactive) | GI50 (HCT-15): > 100 µM | GI50 (HL-60): > 100 µM (inactive) | GI50 (HOP-62): > 100 µM (inactive) | GI50 (HOP-92): > 100 µM (inactive) | GI50 (HT-29): > 100 µM (inactive) | GI50 (IGROV-1): > 100 µM (inactive) | GI50 (K562): > 100 µM (inactive) | GI50 (KM-20L2): > 100 µM (inactive) | GI50 (KM12): > 100 µM (inactive) | GI50 (LOX IMVI): > 100 µM (inactive) | GI50 (LXFL 529): > 100 µM (inactive) | GI50 (M14): > 100 µM (inactive) | GI50 (M19-MEL): > 100 µM (inactive) | GI50 (MOLT-4): > 100 µM (inactive) | GI50 (Malme-3M): > 100 µM (inactive) | GI50 (NCI-H226): > 100 µM (inactive) | GI50 (NCI-H23): > 100 µM (inactive) | GI50 (NCI-H460): > 100 µM (inactive) | GI50 (NCI-H522): > 100 µM (inactive) | GI50 (OVCAR-3): > 100 µM (inactive) | GI50 (OVCAR-4): > 100 µM (inactive) | GI50 (OVCAR-5): > 100 µM (inactive) | GI50 (OVCAR-8): > 100 µM (inactive) | GI50 (RPMI-8226): > 100 µM (inactive) | GI50 (RXF 393): > 100 µM (inactive) | GI50 (RXF 631): > 100 µM (inactive) | GI50 (SF-268): > 100 µM (inactive) | GI50 (SF-295): > 100 µM (inactive) | GI50 (SF-539): > 100 µM (inactive) | GI50 (SK-MEL-2): > 100 µM (inactive) | GI50 (SK-OV-3): > 100 µM (inactive) | GI50 (SN12C): > 100 µM (inactive) | GI50 (SNB-19): > 100 µM (inactive) | GI50 (SNB-75): > 100 µM (inactive) | GI50 (SNB-78): > 100 µM (inactive) | GI50 (SR): > 100 µM (inactive) | GI50 (SW-620): > 100 µM (inactive) | GI50 (TK-10): > 100 µM (inactive) | GI50 (U-251): > 100 µM (inactive) | GI50 (UACC-257): > 100 µM (inactive) | GI50 (UACC-62): > 100 µM (inactive) | GI50 (UO-31): > 100 µM (inactive)
